Test results from US20100015164A1, “Compositions and Methods for Modulating Osteoblast Cell Differentiation and Bone Generation Through HIF-1a” (THE UAB RESEARCH FOUNDATION, priority 2005, published 2010).
Entries after “also recorded” stand apart in the source; their conditions may differ.

Tests used:
VEGF = VEGF mRNA expression by real time PCR in osteoblasts exposed to cobalt chloride; type: cell-based, mouse; conditions: 5, 10, or 50 ng/mL cobalt chloride, 3, 12, or 24 hours
Method: The osteoblasts were exposed to 5, 10, or 50 ng/mL of cobalt chloride. After, 3, 12, or 24 hours, cells were harvested and mRNA was collected. Real time PCR was performed with β-actin as control. […] Additionally, they lend support to the approach of using VEGF upregulation as assessed by real time PCR as a surrogate for HIF-1α activation in initial screening rather than the more time consuming approach of western blotting for HIF-1α.

HIF-1α [1] = conditions: in vitro and in vivo, published studies; cited from earlier work
HIF-1α [2] = assay: Western blotting of nuclear protein for HIF-1α in primary osteoblasts exposed to cobalt; type: cell-based, mouse; conditions: primary osteoblast cultures; 5, 10, or 50 ng/ml cobalt; 0, 3, 6, 12, and 24 hours of exposure
Excerpt: The class of PHDs acting on HIF-1α require oxygen, iron, and 2-oxyglutarate as co-factors. Small molecules that block these enzymes are iron chelators, such as cobalt and desferrioxamine, or 2-oxyglutarate analogs such as L-mimosinc and 3,4 DHB, and DMOG. A schematic of the PHD enzyme and the structures of the 2-oxyglutarate analogs is reproduced in FIG. 5. A number of previous studies have shown an increase of VEGF and other HIF-1α target genes in cells treated with the small molecule PHD inhibitors selected here. Because the effects of the PHD inhibiting agents have not been tested in primary osteoblasts, studies were performed to evaluate their ability to increase HIF-1α. Osteoblasts were grown to near confluence, and then exposed to varying concentrations of cobalt chloride. At time zero, and after 3, 6, 12, and 24 hours of exposure, the cells were harvested and nuclear protein was extracted.

Structure (SMILES) | VEGF mRNA expression (real time PCR, β-actin as control) (VEGF) | VEGF mRNA expression (real time PCR, β-actin as control) (VEGF; listed as cobalt) | HIF-1α activation (HIF-1α [1]) | nuclear HIF-1α (Western blot of nuclear extracts) (HIF-1α [2])
[Cl][Co][Cl] [cobalt chloride] | Marked upregulation of VEGF expression | Marked upregulation of VEGF was seen after 12 and 24 hours | increase HIF-1α activation in vitro and in vivo | time and dose dependent increase in nuclear HIF-1α; also recorded: increased nuclear accumulation after cobalt treatment at all doses
CC(=O)N(O)CCCCCNC(=O)CCC(=O)N(O)CCCCCNC(=O)CCC(=O)N(O)CCCCCN [desferrioxamine] |  |  | increase HIF-1α activation in vitro and in vivo | 
